Common to all, as to assay: NCI anticancer screen, dose series, 48 h
Experiment [1] has as its system A498 renal.
In experiment [2] the test system is ACHN renal.
In experiment [3] the test system is SK-MEL-2 melanoma.
Experiment [4] deals with SR leukemia.
For experiment [5], the system named is TK-10 renal.
Experiment [6] deals with UACC-257 melanoma.
The test system of experiment [7] is M14 melanoma.

Where “and” joins values, the source holds several entries; their conditions need not be identical. Equal entries are not always repeated.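 Values below derive from 48-hour exposures of cells grown in 96-well plates, with endpoints linearly interpolated between the two concentrations bracketing the appropriate inhibition level. At the GI50, growth is halved. TGI: concentration producing complete growth inhibition.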 Calls of active or inactive are those of the source. No stated cut-off is given here; in the data, active means GI50 below about 0.43 µM; inactive means the rest.

As for `COc1cc(/C(=C2/O[C@@H]([C@H]3COC(C)(C)O3)[C@H]3OC(C)(C)O[C@@H]23)c2ccc3c(c2)OCO3)cc(OC)c1OC`, the GI50 is greater than 25 µM in experiment [1]; 4.68 µM in experiment [2]; greater than 25000 nM in experiment [3]; greater than 25000 nM in experiment [4]; greater than 25000 nM in experiment [5]; greater than 25 µM in experiment [6]. Moreover, the TGI in experiment [1], in experiment [2], in experiment [3], in experiment [4], in experiment [5] and in experiment [6] was greater than 25 µM in each case.

As for `COc1cc(-c2nc3cc(Cl)c(Cl)cc3[nH]2)ccc1OCC(=O)N=Nc1c(O)[nH]c2ccc(Cl)cc12`, the GI50 was 1.69 µM in experiment [2], 1280 nM in experiment [3], 252 nM in experiment [4] and 2530 nM in experiment [5]. Besides, the TGI in experiment [2] was greater than 100 µM; in experiment [3] it was 2.93 µM; in experiment [4], 1.39 µM; in experiment [5] it was greater than 100 µM.

Take `CCCCOc1ccc2c(c1)CC[C@@H]1[C@@H]2CC[C@]2(C)C(=O)N(CCCC)C(=O)C[C@@H]12`: the TGI in experiment [1], in experiment [7], in experiment [3] and in experiment [4] was greater than 100 µM throughout.

Consider `CC1=CC(=O)/C(=C/n2c(=S)[nH]c3cc(C)ccc32)C(=O)O1`, for which the TGI in experiment [2], in experiment [7], in experiment [3], in experiment [5] and in experiment [6] was greater than 100 µM each time.

For the compound `O=S(c1ccc(Cl)cc1)c1ccccc1C1=NCCN1` (stereo not drawn), the TGI in experiment [2], in experiment [7], in experiment [3], in experiment [5] and in experiment [6] was greater than 100 µM in each case.

Take `O=P(O)(O)CN1CCNCCN(CP(=O)(O)O)CCN(CP(=O)(O)O)CCNCC1`: the outcome in experiment [1], in experiment [2], in experiment [7], in experiment [5] and in experiment [6] was inactive.

For the compound `COc1cccc([C@@H]2CC(=O)c3cc4c(cc3N2)OCO4)c1`, the TGI in experiment [1], in experiment [2], in experiment [7], in experiment [3], in experiment [5] and in experiment [6] was greater than 100 µM in each case.

As for `O=C1CCCCN1C(=O)c1ccc([N+](=O)[O-])cc1`, the TGI in experiment [1], in experiment [2], in experiment [7], in experiment [4], in experiment [5] and in experiment [6] was greater than 100 µM throughout.

With `Cn1c(COC(=O)NC2CCCCC2)c(COC(=O)NC2CCCCC2)c2ccc3cc(C=O)ccc3c21`, the TGI in experiment [1], in experiment [2], in experiment [7], in experiment [3], in experiment [5] and in experiment [6] was greater than 100 µM each time.

`O=S1(=O)OCCCOS(=O)(=O)C1(Br)Br`: the TGI in experiment [2], in experiment [7], in experiment [3], in experiment [4], in experiment [5] and in experiment [6] was greater than 100 µM throughout.

With `CCC(=O)N1C(=O)C(CC)(CC)C(=O)N1C(=O)CC`, the TGI in experiment [2], in experiment [7], in experiment [3], in experiment [4], in experiment [5] and in experiment [6] was greater than 100 µM each time.

`COc1ccc(C2=NNC(c3cc4cc(Br)ccc4nc3Cl)C2)cc1` (stereo not drawn): the TGI in experiment [1], in experiment [2], in experiment [7], in experiment [3], in experiment [4] and in experiment [6] was greater than 25 µM in each case.

Turning to `Cc1ccc2c(=O)cc(Cc3csc4ccccc34)[nH]c2n1`, the TGI in experiment [1], in experiment [7], in experiment [3], in experiment [5] and in experiment [6] was greater than 100 µM throughout.

On to `COc1cc2c(c(OC)c1OC)-c1ccc(SC)c(=O)cc1[C@@H](NC(=O)c1ccc([N+](=O)[O-])cc1)CC2`, for which the TGI in experiment [1] is 3.57 µM; in experiment [2], 25 µM and > 100 µM; in experiment [4] it was 25 µM and > 100 µM; in experiment [5], 25 µM and > 100 µM. For the same compound, the GI50 in experiment [5] was 34.4 nM.

Consider `O=C(CSCC(=O)N/N=C\c1ccccc1F)N/N=C\c1ccccc1F`, for which the TGI in experiment [1], in experiment [2], in experiment [7], in experiment [3], in experiment [5] and in experiment [6] was greater than 100 µM each time.

For the compound `COC1=CC(=O)c2nc3ccccc3c3ccnc1c23`, the TGI in experiment [2] was greater than 65.4 µM; in experiment [7] it was 13.7 µM; in experiment [3], 21.8 µM; in experiment [4], 10.8 µM; in experiment [5] it was greater than 66.9 µM; in experiment [6] it was 17 µM.

Take `C=CCOCn1ccc(N)nc1=O`: the TGI in experiment [7], in experiment [4], in experiment [5] and in experiment [6] was greater than 100 µM each time.

With `O=C(c1ccccc1O)c1cc(-c2ncc3c(=O)c4ccccc4oc3n2)c(-c2ccccc2O)[nH]c1=O`, the TGI in experiment [1] was found to be 57.1 µM; in experiment [3], 46.3 µM; in experiment [6] it was 47.1 µM.

For `COc1cc([C@@H]2c3cc4c(cc3[C@@H](c3c(O)cc(O)c5c3O[C@H](c3ccc(O)c(O)c3)[C@H](OC(=O)c3cc(O)c(O)c(O)c3)C5)[C@H]3COC(=O)[C@H]23)OCO4)cc(OC)c1O`, the TGI in experiment [1] is greater than 100 µM; in experiment [2], greater than 100 µM; in experiment [7], 64.2 µM; in experiment [3], greater than 100 µM; in experiment [5], greater than 100 µM; in experiment [6], greater than 100 µM.

In the case of `O=Cc1c(Br)[nH]c2ccccc12`, the TGI is greater than 100 µM in experiment [1], greater than 100 µM in experiment [3] and 77.7 µM in experiment [6].
